In the assay the target is 5-hydroxytryptamine receptor 2A (Homo sapiens, UniProt P28223). The assay is described as follows: Agonist activity at recombinant human 5HT2A receptor expressed in Flp-In-293 cells assessed as increase in calcium influx measured for 300 secs by Fluo-4 dye based FLIPR assay.

Molecules are shown by their SMILES.

Sequence of 5-hydroxytryptamine receptor 2A (P28223 whole entry): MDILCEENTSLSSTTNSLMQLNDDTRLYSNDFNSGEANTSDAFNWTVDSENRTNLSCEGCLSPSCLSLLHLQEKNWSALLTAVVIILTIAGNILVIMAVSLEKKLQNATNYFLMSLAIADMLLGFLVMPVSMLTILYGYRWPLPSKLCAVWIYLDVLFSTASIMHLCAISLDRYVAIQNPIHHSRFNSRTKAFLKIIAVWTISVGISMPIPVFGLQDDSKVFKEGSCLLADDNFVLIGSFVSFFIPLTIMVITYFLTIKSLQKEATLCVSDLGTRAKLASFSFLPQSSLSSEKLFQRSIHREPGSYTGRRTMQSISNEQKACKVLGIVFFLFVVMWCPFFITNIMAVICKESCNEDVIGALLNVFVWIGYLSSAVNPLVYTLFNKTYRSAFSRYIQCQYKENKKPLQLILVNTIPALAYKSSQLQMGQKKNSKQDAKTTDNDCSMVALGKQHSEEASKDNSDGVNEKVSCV

Usually EC50 stands for the midpoint of the concentration-response curve. For `NC[C@H]1C[C@]1(F)c1cccc(F)c1`, the 50% effective concentration (EC50) was found to be 2.69 nM.

The record behind these values is BindingDB's records for doi:10.1016/j.ejmech.2019.111626 (University of Illinois At Chicago, 2019).
